From ChEMBL document CHEMBL1154613, “Antagonists of the calcium receptor. 2. Amino alcohol-based parathyroid hormone secretagogues” (J Med Chem, 2009)

Key:
[1] = Half life in iv and po dosed rat; assay type: ADME, organism-based; settings: in vivo
[2] = Half life in iv and po dosed dog; assay type: ADME, organism-based, Canis lupus familiaris; settings: in vivo
Rattus norvegicus [3] = assay: Oral bioavailability in rat assessed as (R)-3-(3-cyano-4-(2-hydroxy-3-(2-methyl-1-(naphthalen-2-yl)propan-2-ylamino)propoxy)phenyl)propanoic acid levels; assay type: ADME, organism-based; settings: in vivo
Canis familiaris [4] = assay: Oral bioavailability in dog assessed as (R)-3-(3-cyano-4-(2-hydroxy-3-(2-methyl-1-(naphthalen-2-yl)propan-2-ylamino)propoxy)phenyl)propanoic acid levels; assay type: ADME, organism-based, Canis lupus familiaris; settings: in vivo
Canis familiaris [5] = assay: Tmax in dog assessed as (R)-3-(3-cyano-4-(2-hydroxy-3-(2-methyl-1-(naphthalen-2-yl)propan-2-ylamino)propoxy)phenyl)propanoic acid levels at 23.4 mg/kg, po; assay type: ADME, organism-based, Canis lupus familiaris; set-up: dose 23.4 mg/kg, route oral; settings: in vivo
Canis familiaris [6] = assay: Cmax in dog assessed as (R)-3-(3-cyano-4-(2-hydroxy-3-(2-methyl-1-(naphthalen-2-yl)propan-2-ylamino)propoxy)phenyl)propanoic acid levels at 23.4 mg/kg, po; assay type: ADME, organism-based, Canis lupus familiaris; set-up: dose 23.4 mg/kg, route oral; settings: in vivo
[7] = target: Beta-2 adrenergic receptor (Homo sapiens, UniProt P07550); assay: Inhibition of beta2 adrenergic receptor
[8] = Mean residence time in iv and po dosed rat; assay type: ADME, organism-based; settings: in vivo
[9] = Mean residence time in iv and po dosed dog; assay type: ADME, organism-based, Canis lupus familiaris; settings: in vivo
[10] = target: T1, Extracellular calcium-sensing receptor (Homo sapiens, UniProt P41180); assay: Antagonist activity at human calcium receptor expressed in HEK293 4.0-7 cells assessed as inhibition of intracellular calcium release by FLIPR assay; assay type: functional, cell-based
T1 sequence (P41180 whole entry): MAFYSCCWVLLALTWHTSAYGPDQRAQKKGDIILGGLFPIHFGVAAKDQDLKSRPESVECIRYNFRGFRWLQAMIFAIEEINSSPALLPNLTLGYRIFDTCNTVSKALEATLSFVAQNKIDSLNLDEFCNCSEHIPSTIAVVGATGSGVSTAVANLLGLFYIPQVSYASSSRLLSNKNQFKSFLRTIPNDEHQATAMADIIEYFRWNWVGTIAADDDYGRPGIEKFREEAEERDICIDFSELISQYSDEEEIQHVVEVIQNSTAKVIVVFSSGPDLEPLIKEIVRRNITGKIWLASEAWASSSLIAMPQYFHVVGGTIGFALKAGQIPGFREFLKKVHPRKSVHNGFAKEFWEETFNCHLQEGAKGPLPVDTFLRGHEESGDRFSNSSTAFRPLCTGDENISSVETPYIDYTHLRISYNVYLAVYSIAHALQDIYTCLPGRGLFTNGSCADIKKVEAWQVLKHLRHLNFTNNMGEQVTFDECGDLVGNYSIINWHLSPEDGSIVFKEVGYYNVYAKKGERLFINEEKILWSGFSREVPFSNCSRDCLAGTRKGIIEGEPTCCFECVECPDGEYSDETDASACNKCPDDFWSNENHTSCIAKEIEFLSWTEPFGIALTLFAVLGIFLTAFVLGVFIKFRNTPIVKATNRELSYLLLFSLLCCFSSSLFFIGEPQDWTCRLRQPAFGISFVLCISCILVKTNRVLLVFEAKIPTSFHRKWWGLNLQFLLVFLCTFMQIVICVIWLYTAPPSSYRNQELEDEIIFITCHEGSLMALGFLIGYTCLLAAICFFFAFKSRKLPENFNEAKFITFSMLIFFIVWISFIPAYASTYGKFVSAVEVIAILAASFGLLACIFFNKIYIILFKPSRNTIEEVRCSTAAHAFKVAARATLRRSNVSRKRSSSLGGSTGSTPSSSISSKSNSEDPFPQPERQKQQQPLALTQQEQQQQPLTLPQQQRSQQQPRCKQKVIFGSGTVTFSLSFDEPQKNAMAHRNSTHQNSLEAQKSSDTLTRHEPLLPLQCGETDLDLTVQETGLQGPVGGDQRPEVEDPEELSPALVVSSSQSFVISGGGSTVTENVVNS

[11] = target: T1, Extracellular calcium-sensing receptor; assay: Displacement of [3H](2-(2-hydroxyphenyl)-6-methyl-5-(2-methylpropyl)-3-(2-phenylethyl)-4(3H)-pyrimidinone) from human calcium receptor expressed in human HEK293 4.0-7 cells by liquid scintillation counting; assay type: cell-based
[12] = target: Sodium-dependent serotonin transporter (Homo sapiens, UniProt P31645); assay: Inhibition of SERT
[13] = target: Sodium-dependent noradrenaline transporter (Homo sapiens, UniProt P23975); assay: Inhibition of NET
[14] = target: Sodium-dependent dopamine transporter (Homo sapiens, UniProt Q01959); assay: Inhibition of DAT
Cytochrome P450 2D6 = Cytochrome P450 2D6 (Homo sapiens, UniProt P10635); assay: Inhibition of CYP2D6; assay type: ADME
[15] = target: Voltage-gated inwardly rectifying potassium channel KCNH2 (Homo sapiens, UniProt Q12809)
[16] = Clearance in iv and po dosed rat; assay type: ADME, organism-based; settings: in vivo
[17] = Volume of distribution at steady state in iv and po dosed rat; assay type: ADME, organism-based; settings: in vivo, read-out: Vdss
[18] = Oral bioavailability in rat; assay type: ADME, organism-based; settings: in vivo
[19] = Clearance in iv and po dosed dog; assay type: ADME, organism-based, Canis lupus familiaris; settings: in vivo
[20] = Volume of distribution at steady state in iv and po dosed dog; assay type: ADME, organism-based, Canis lupus familiaris; settings: in vivo, read-out: Vdss
Rattus norvegicus [21] = assay: Metabolic stability in intraportal dosed rat assessed as hepatic first pass; assay type: ADME, organism-based; settings: in vivo, other
Canis familiaris [22] = assay: Metabolic stability in intraportal dosed dog assessed as hepatic first pass; assay type: ADME, organism-based, Canis lupus familiaris; settings: in vivo, other

Chain of Sodium-dependent noradrenaline transporter (P23975 whole entry): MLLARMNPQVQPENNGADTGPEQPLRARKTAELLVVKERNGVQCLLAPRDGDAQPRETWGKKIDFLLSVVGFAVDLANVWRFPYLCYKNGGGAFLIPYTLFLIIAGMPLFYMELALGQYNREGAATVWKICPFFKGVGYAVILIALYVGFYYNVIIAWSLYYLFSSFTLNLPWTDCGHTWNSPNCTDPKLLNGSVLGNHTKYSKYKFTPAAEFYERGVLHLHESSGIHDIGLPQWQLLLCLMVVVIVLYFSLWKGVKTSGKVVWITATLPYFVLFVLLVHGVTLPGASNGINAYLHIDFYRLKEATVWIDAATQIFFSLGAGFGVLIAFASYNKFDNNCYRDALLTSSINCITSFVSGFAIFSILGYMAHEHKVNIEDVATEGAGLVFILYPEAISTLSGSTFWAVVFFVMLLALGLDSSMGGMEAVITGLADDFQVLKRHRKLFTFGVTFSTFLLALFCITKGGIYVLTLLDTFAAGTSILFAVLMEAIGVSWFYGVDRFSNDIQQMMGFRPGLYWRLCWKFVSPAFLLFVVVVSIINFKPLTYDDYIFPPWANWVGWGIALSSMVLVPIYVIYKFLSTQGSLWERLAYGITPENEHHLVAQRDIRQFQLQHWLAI
Chain of Voltage-gated inwardly rectifying potassium channel KCNH2 (Q12809 whole entry): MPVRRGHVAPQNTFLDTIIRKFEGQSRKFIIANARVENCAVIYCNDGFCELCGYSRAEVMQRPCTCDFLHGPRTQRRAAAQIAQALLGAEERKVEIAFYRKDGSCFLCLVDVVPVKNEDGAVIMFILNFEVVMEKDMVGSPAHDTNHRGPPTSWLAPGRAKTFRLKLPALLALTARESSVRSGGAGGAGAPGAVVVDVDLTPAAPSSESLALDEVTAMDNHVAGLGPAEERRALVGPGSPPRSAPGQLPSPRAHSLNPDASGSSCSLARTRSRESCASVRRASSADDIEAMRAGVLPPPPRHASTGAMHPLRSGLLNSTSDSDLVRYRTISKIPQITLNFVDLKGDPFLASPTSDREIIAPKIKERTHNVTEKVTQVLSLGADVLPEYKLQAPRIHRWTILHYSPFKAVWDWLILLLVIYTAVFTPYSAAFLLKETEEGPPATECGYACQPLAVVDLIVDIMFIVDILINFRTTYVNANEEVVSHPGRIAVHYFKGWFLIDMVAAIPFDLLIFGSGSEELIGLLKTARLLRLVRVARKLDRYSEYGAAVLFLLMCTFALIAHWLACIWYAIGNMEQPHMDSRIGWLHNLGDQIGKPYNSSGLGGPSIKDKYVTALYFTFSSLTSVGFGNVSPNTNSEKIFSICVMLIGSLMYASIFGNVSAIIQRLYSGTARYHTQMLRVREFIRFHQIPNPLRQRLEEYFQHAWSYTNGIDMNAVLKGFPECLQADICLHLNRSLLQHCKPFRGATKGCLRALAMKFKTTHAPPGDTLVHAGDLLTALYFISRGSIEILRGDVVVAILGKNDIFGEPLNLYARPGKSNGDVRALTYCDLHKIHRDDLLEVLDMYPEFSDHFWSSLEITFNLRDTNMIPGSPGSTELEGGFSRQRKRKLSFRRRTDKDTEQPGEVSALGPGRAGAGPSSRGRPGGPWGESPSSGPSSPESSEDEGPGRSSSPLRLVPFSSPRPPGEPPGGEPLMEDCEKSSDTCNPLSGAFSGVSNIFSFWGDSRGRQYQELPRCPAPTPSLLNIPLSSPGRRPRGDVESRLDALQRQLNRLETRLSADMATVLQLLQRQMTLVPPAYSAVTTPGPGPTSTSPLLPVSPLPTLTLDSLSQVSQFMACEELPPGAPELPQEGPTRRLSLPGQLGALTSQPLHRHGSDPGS
Chain of Cytochrome P450 2D6 (P10635 whole entry): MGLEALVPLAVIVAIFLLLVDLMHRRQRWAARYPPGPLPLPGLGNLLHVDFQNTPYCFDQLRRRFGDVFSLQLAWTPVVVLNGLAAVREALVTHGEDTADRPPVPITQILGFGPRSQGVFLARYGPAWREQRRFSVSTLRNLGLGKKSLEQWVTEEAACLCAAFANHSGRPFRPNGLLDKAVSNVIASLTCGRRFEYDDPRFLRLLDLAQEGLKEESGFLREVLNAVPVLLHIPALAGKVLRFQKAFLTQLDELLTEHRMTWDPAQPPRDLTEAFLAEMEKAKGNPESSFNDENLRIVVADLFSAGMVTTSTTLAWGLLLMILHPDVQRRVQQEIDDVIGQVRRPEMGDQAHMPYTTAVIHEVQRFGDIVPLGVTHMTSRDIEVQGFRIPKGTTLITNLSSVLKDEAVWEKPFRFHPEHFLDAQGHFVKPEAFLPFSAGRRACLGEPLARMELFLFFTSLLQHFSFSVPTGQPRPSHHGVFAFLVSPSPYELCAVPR
Chain of Beta-2 adrenergic receptor (P07550 whole entry): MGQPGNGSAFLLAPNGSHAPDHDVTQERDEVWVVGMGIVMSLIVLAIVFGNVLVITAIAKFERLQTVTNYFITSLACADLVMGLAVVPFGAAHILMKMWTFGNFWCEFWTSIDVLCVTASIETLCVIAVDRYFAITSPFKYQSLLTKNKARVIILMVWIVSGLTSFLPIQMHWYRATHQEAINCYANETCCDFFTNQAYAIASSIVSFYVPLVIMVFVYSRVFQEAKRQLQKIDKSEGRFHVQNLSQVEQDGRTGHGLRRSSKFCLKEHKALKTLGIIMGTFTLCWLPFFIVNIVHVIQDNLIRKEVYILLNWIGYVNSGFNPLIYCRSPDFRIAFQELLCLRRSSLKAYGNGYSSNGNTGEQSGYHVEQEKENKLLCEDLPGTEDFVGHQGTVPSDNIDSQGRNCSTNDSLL
Chain of Sodium-dependent dopamine transporter (Q01959 whole entry): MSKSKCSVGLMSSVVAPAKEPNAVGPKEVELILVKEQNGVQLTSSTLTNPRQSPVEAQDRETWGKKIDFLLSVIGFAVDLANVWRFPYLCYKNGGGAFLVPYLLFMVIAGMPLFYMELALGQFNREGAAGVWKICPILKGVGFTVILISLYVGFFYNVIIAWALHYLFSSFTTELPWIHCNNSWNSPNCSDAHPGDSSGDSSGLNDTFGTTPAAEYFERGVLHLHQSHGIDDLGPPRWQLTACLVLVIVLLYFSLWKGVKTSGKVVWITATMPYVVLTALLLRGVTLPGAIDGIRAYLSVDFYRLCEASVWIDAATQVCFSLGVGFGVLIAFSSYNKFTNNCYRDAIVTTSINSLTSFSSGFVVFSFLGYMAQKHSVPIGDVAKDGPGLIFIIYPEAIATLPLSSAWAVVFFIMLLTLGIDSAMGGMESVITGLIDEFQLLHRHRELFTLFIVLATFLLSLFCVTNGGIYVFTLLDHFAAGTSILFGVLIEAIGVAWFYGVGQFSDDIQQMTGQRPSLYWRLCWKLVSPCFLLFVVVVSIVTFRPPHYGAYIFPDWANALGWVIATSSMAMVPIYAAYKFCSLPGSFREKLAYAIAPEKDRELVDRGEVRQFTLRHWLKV
Chain of Sodium-dependent serotonin transporter (P31645 whole entry): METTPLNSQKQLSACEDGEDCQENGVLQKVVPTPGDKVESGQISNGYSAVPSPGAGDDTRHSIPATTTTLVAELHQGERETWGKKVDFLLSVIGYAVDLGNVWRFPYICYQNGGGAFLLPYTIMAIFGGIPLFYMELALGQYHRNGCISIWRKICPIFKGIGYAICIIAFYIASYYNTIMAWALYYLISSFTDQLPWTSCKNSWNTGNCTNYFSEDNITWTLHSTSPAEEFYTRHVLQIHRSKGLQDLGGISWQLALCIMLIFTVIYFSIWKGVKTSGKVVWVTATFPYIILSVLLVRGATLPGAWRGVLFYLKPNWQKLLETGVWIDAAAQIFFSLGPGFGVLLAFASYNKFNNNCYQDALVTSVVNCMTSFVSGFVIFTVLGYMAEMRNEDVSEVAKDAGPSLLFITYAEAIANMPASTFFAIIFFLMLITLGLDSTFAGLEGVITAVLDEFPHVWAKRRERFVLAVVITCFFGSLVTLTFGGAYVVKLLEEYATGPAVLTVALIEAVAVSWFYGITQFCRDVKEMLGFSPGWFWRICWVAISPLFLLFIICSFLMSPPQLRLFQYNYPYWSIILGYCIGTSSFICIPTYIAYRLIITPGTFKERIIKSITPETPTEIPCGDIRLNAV

| Compound | half-life [1] [min] | half-life [2] [min] | IC50 [7] [nM] | MRT [8] [min] | MRT [9] [min] | IC50 [10] [nM] | IC50 [11] [nM] | IC50 [12] [nM] | IC50 [13] [nM] | IC50 [14] [nM] | IC50 (Cytochrome P450 2D6) [nM] | IC50 [15] [nM] | clearance [16] [mL/min/kg] | Vd [17] [L/kg] | bioavailability [18] [%] | further results |
| --- | --- | --- | --- | --- | --- | --- | --- | --- | --- | --- | --- | --- | --- | --- | --- | --- |
| CCOC(=O)CCc1ccc(OC[C@H](O)CNC(C)(C)Cc2ccc3ccccc3c2)c(C#N)c1.Cl | 52.8 | 73.8 | 14000 | 42 | 82.2 | 34 | 3 | 78 | 37 | 59 | 3000 |  |  |  |  | F (Rattus norvegicus [3]): 9.5%; F (Canis familiaris [4]): 9.1%; Tmax (Canis familiaris [5]): 30 min; Cmax (Canis familiaris [6]): 597 ng/mL |
| CC(C)(Cc1ccc2ccccc2c1)NC[C@@H](O)COc1ccccc1C#N |  |  |  |  |  | 18 | 3 | 3 | 3 | 2 | 100 | 3.2 |  |  |  |  |
| CC(C)(Cc1ccc2ccccc2c1)NC[C@@H](O)COc1ccc(CCC(=O)O)cc1 | 24 |  | > 30000 | 18 |  | > 25000 | 4800 | 68 | 16000 | 3700 | 52000 | 38.5 | 118 | 2.1 | 4 |  |
| COc1ccc(CC(C)(C)NC[C@H](O)COc2cccc3[nH]c(=O)[nH]c23)cc1 |  |  | 1.3 |  |  | 11000 | 31800 |  |  |  | 1260 | 11.8 |  |  |  |  |
| CC(C)(Cc1ccc2ccccc2c1)NC[C@@H](O)COc1cccc(Cl)c1C#N | 126 |  | 4300 | 150 |  | 58 | 3 |  |  |  | 45 | 3 | 73.8 | 11 | 11.4 |  |
| CC(C)(Cc1ccc2ccccc2c1)NC[C@@H](O)COc1ccc(CCC(=O)O)cc1C#N | 33.6 | 73.8 | > 30000 | 19.2 | 51 | 200 | 22 | 23 | 5400 | 2800 | > 50000 | 32.7 | 63.6 | 1.18 | 0.29 | clearance [19]: 15.4 mL/min/kg; Vd [20]: 0.78 L/kg; Activity (Rattus norvegicus [21]): 68%; Activity (Canis familiaris [22]): 90% |
